Reference: the supplement of paper PMC10307832

What was measured:
Assay in all cases: relative viability (nuclei count vs DMSO), 5 days (fraction); higher = more cells survive
NCI-H2087 = tested on: NCI-H2087
Summary of the method: (§1)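 The day after seeding in 1536-well plates, lung cancer cell lines were treated by pin tool with a single drug, or with a fixed anchor-drug dose together with five library-drug doses (not always all listed) in √10 steps. After 5 days, a combined fix-and-stain solution (final 0.05% Triton X-100, 1% formaldehyde, 1 ug/ml Hoechst) was added. Nuclei counted on 4× images gave relative viability as treated counts over vehicle counts, reported as the median of duplicate plates.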

NCI-H2347 = tested on: NCI-H2347
Summary of the method: as §1

EPLC-272H = tested on: EPLC-272H
Summary of the method: as §1

COR-L 105 = tested on: COR-L 105
Summary of the method: as §1

PC-14 = tested on: PC-14
Summary of the method: as §1

H3255 = tested on: H3255
Summary of the method: as §1

LCLC-97TM1 = tested on: LCLC-97TM1
Summary of the method: as §1

NCI-H647 = tested on: NCI-H647
Summary of the method: as §1

NCI-H2405 = tested on: NCI-H2405
Summary of the method: as §1

ChaGo-K-1 = tested on: ChaGo-K-1
Summary of the method: as §1

NCI-H322M = tested on: NCI-H322M
Summary of the method: as §1

201T = tested on: 201T
Summary of the method: as §1

Oc1nc(-c2ccc(C(F)(F)F)cc2)nc2c1CSCC2 [XAV939] + COc1cc2c(Oc3ccc(NC(=O)C4(C(=O)Nc5ccc(F)cc5)CC4)cc3F)ccnc2cc1OCCCN1CCOCC1 [Foretinib] (partner 0.25 µM)
relative viability (NCI-H2087; first compound 0.8 µM): 1.02
relative viability (NCI-H2087; first compound 2.53 µM): 0.677
relative viability (NCI-H2347; first compound 0.08 µM): 0.797
relative viability (NCI-H2347; first compound 0.253 µM): 0.803
relative viability (NCI-H2347; first compound 0.8 µM): 0.786
relative viability (NCI-H2347; first compound 2.53 µM): 0.354
relative viability (EPLC-272H; first compound 0.08 µM): 0.808
relative viability (EPLC-272H; first compound 0.253 µM): 0.603
relative viability (EPLC-272H; first compound 0.8 µM): 0.672
relative viability (EPLC-272H; first compound 2.53 µM): 0.548
relative viability (COR-L 105; first compound 0.08 µM): 1.17
relative viability (COR-L 105; first compound 0.253 µM): 1.06
relative viability (COR-L 105; first compound 0.8 µM): 1.14
relative viability (COR-L 105; first compound 2.53 µM): 0.964
relative viability (PC-14; first compound 0.08 µM): 0.945
relative viability (PC-14; first compound 0.253 µM): 0.869
relative viability (PC-14; first compound 0.8 µM): 0.885
relative viability (PC-14; first compound 2.53 µM): 0.905
relative viability (H3255; first compound 0.08 µM): 0.845
relative viability (H3255; first compound 0.253 µM): 0.825
relative viability (H3255; first compound 0.8 µM): 0.803
relative viability (H3255; first compound 2.53 µM): 0.851
relative viability (LCLC-97TM1; first compound 0.08 µM): 0.919
relative viability (LCLC-97TM1; first compound 0.253 µM): 0.796
relative viability (LCLC-97TM1; first compound 0.8 µM): 0.897
relative viability (LCLC-97TM1; first compound 2.53 µM): 0.936
relative viability (NCI-H647; first compound 0.08 µM): 1.21
relative viability (NCI-H647; first compound 0.253 µM): 0.958
relative viability (NCI-H647; first compound 0.8 µM): 0.991
relative viability (NCI-H647; first compound 2.53 µM): 0.609
relative viability (NCI-H2405; first compound 0.08 µM): 0.99
relative viability (NCI-H2405; first compound 0.253 µM): 1.01
relative viability (NCI-H2405; first compound 0.8 µM): 1.03
relative viability (NCI-H2405; first compound 2.53 µM): 1.01
relative viability (ChaGo-K-1; first compound 0.08 µM): 0.874
relative viability (ChaGo-K-1; first compound 0.253 µM): 1.01
relative viability (ChaGo-K-1; first compound 0.8 µM): 0.812
relative viability (ChaGo-K-1; first compound 2.53 µM): 0.773
relative viability (NCI-H322M; first compound 0.08 µM): 1.11
relative viability (NCI-H322M; first compound 0.253 µM): 0.921
relative viability (NCI-H322M; first compound 0.8 µM): 0.778
relative viability (NCI-H322M; first compound 2.53 µM): 0.609
relative viability (201T; first compound 0.08 µM): 0.88
relative viability (201T; first compound 0.253 µM): 0.705
relative viability (201T; first compound 0.8 µM): 0.861
relative viability (201T; first compound 2.53 µM): 0.746
